The subject of this experiment is HCT116. The settings on record: 72 h. In a few lines:
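IC50 and maximal efficacy were derived from four-parameter Hill curve fits. The underlying CellTiter-Glo luminescence was scaled so that vehicle equals 0% and positive control equals -100%, and was then pattern-corrected. HCT116 cells had been seeded in 1536-well plates at 250 per well.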

Structures can show the parent of a compound that is named as a salt.

Consider `CCCCOCCOCCOCc1cc2c(cc1CCC)OCO2` [Piperonyl butoxide], for which the IC50 cell viability is, setting by setting: (ICRF193 0 nM) over 45.8 µM; (ICRF193 200 nM) over 45.8 µM.

On to `O=C(CCBr)N1CCN(C(=O)CCBr)CC1` [Pipobroman], for which the IC50 cell viability was over 45.8 µM (ICRF193 0 nM) and over 45.8 µM (ICRF193 200 nM).

As to `CCCCCCCCCCCCCCCC(=O)OCCC1CCN(CCCN2c3ccccc3Sc3ccc(S(=O)(=O)N(C)C)cc32)CC1` [Pipothiazine palmitate], the IC50 cell viability (ICRF193 0 nM) is over 45.8 µM and the IC50 cell viability (ICRF193 200 nM) was over 45.8 µM.

Consider `NC(=O)CN1CCCC1=O` [Piracetam], for which the IC50 cell viability is, setting by setting: (ICRF193 0 nM) over 45.8 µM; (ICRF193 200 nM) over 45.8 µM.

In the case of `CC(C)(C)NCC(O)c1ccc(O)c(CO)n1` (stereo unspecified) [Pirbuterol hydrochloride], the IC50 cell viability is over 45.8 µM (ICRF193 0 nM) and over 45.8 µM (ICRF193 200 nM).

In the case of `O=C(O)c1cc(O)c2c3nc4ccccc4oc-3cc(=O)c2n1` [Pirenoxine Sodium], the IC50 cell viability (ICRF193 0 nM) was over 45.8 µM and the IC50 cell viability (ICRF193 200 nM) was over 45.8 µM.

`CN1CCN(CC(=O)N2c3ccccc3C(=O)Nc3cccnc32)CC1` [Pirenzepine]: the IC50 cell viability is over 45.8 µM (ICRF193 0 nM) and over 45.8 µM (ICRF193 200 nM).

Take `NS(=O)(=O)c1cc(C(=O)O)cc(N2CCCC2)c1Oc1ccccc1` [Piretanide]: the IC50 cell viability is over 45.8 µM (ICRF193 0 nM) and over 45.8 µM (ICRF193 200 nM).

Turning to `Cc1ccc(=O)n(-c2ccccc2)c1` [Pirfenidone], the IC50 cell viability is over 45.8 µM (ICRF193 0 nM) and over 45.8 µM (ICRF193 200 nM).

`CC[C@@H]1CCN[C@H](C(=O)N[C@@H]([C@H]2O[C@H](SC)[C@H](O)[C@@H](O)[C@H]2O)[C@H](C)Cl)C1` [Pirlimycin Hydrochloride]: the IC50 cell viability (ICRF193 0 nM) is over 45.8 µM and the IC50 cell viability (ICRF193 200 nM) was over 45.8 µM.

On to `CC1CCCC(C)N1CCCC(O)(c1ccccc1)c1ccccn1` (stereo unspecified) [Pirmenol], for which the IC50 cell viability is, setting by setting: (ICRF193 0 nM) over 45.8 µM; (ICRF193 200 nM) over 45.8 µM.

As for `CCN1CCC(=C2c3ccccc3CCc3ccccc32)C1C` (stereo unspecified) [Piroheptine Hydrochloride], the IC50 cell viability is over 45.8 µM (ICRF193 0 nM) and over 45.8 µM (ICRF193 200 nM).

For the molecule `CCn1cc(C(=O)O)c(=O)c2cnc(N3CCCC3)nc21` [Piromidic acid], the IC50 cell viability (ICRF193 0 nM) was over 45.8 µM and the IC50 cell viability (ICRF193 200 nM) was over 45.8 µM.

Consider `CN1C(C(=O)Nc2ccccn2)=C(O)c2ccccc2S1(=O)=O` [Piroxicam], for which the IC50 cell viability was over 45.8 µM (ICRF193 0 nM) and over 45.8 µM (ICRF193 200 nM).

Consider `Clc1ccc(CCCOCCCN2CCCCC2)cc1` [Pitolisant (hydrochloride)], for which the IC50 cell viability was over 45.8 µM (ICRF193 0 nM) and over 45.8 µM (ICRF193 200 nM).

`CC(C)(C)C(=O)OCOC(=O)[C@@H]1N2C(=O)[C@@H](NC(=O)[C@H](N)c3ccccc3)[C@H]2SC1(C)C` [Pivampicillin]: the IC50 cell viability (ICRF193 0 nM) was over 45.8 µM and the IC50 cell viability (ICRF193 200 nM) is over 45.8 µM.

Take `CC(C)(C)C(=O)OCOC(=O)[C@@H]1N2C(=O)[C@@H](/N=C/N3CCCCCC3)[C@H]2SC1(C)C` [Pivmecillinam]: the IC50 cell viability reads like this: (ICRF193 0 nM) over 45.8 µM; (ICRF193 200 nM) over 45.8 µM.

Turning to `CN1CCC(=C2c3ccccc3CCc3sccc32)CC1` [Pizotifen], the IC50 cell viability (ICRF193 0 nM) was over 45.8 µM and the IC50 cell viability (ICRF193 200 nM) was over 45.8 µM.

For `c1cc(CN2CCCNCCNCCCNCC2)ccc1CN1CCCNCCNCCCNCC1` [Plerixafor hydrochloride], the IC50 cell viability is over 45.8 µM (ICRF193 0 nM) and over 45.8 µM (ICRF193 200 nM).

`NCCC(=O)[N-][C@@H](Cc1c[nH]cn1)C(=O)[O-].[Zn+2]` [Polaprezinc]: the IC50 cell viability runs as follows: (ICRF193 0 nM) over 45.8 µM; (ICRF193 200 nM) over 45.8 µM.

In the case of `CN1C(CSCC(F)(F)F)Nc2cc(Cl)c(S(N)(=O)=O)cc2S1(=O)=O` (stereo unspecified) [Polythiazide], the IC50 cell viability was over 45.8 µM (ICRF193 0 nM) and over 45.8 µM (ICRF193 200 nM).

Take `Nc1cccc2c1C(=O)N(C1CCC(=O)NC1=O)C2=O` (stereo unspecified) [Pomalidomide]: the IC50 cell viability runs as follows: (ICRF193 0 nM) over 45.8 µM; (ICRF193 200 nM) over 45.8 µM.

`CC[C@@H]([C@H](C)O)n1ncn(-c2ccc(N3CCN(c4ccc(OC[C@@H]5CO[C@@](Cn6cncn6)(c6ccc(F)cc6F)C5)cc4)CC3)cc2)c1=O` [Posaconazole] came in with an IC50 cell viability (ICRF193 0 nM) of over 45.8 µM and an IC50 cell viability (ICRF193 200 nM) of over 45.8 µM.

For `CCCCCC[C@@H](O)C/C=C\CCCCCCCC(=O)O` [Potassium ricinoleate], the IC50 cell viability is over 45.8 µM (ICRF193 0 nM) and over 45.8 µM (ICRF193 200 nM).

In the case of `C[n+]1ccccc1/C=N/O` [Pralidoxime chloride], the IC50 cell viability was over 45.8 µM (ICRF193 0 nM) and over 45.8 µM (ICRF193 200 nM).

As to `CCCN[C@H]1CCc2nc(N)sc2C1` [Pramipexole hydrochloride], the IC50 cell viability by setting is: (ICRF193 0 nM) over 45.8 µM; (ICRF193 200 nM) over 45.8 µM.

In the case of `CCCCOc1ccc(OCCCN2CCOCC2)cc1` [Pramoxine hydrochloride], the IC50 cell viability by setting is: (ICRF193 0 nM) over 45.8 µM; (ICRF193 200 nM) over 45.8 µM.

On to `O=C(N[C@H]1N=C(c2ccccc2F)c2cccc3c2N(CC3)C1=O)c1cc2ccccc2[nH]1` [Pranazepide], for which the IC50 cell viability by setting is: (ICRF193 0 nM) over 45.8 µM; (ICRF193 200 nM) over 45.8 µM.

Take `O=C(Nc1cccc2c(=O)cc(-c3nnn[nH]3)oc12)c1ccc(OCCCCc2ccccc2)cc1` [Pranlukast hydrate]: the IC50 cell viability is over 45.8 µM (ICRF193 0 nM) and over 45.8 µM (ICRF193 200 nM).

Regarding `CC(C(=O)O)c1ccc2c(c1)Cc1cccnc1O2` (stereo unspecified) [Pranoprofen], the IC50 cell viability (ICRF193 0 nM) is over 45.8 µM and the IC50 cell viability (ICRF193 200 nM) was over 45.8 µM.

Molecule `CC(=O)Oc1cc2c(s1)CCN(C(C(=O)C1CC1)c1ccccc1F)C2` (stereo unspecified) [Prasugrel] displayed an IC50 cell viability (ICRF193 0 nM) of over 45.8 µM and an IC50 cell viability (ICRF193 200 nM) of over 45.8 µM.

As for `CC[C@H](C)C(=O)O[C@H]1C[C@H](O)C=C2C=C[C@H](C)[C@H](CC[C@@H](O)C[C@@H](O)CC(=O)O)[C@H]21` [Pravastatin], the IC50 cell viability reads like this: (ICRF193 0 nM) over 45.8 µM; (ICRF193 200 nM) over 45.8 µM.

`O=C(C1CCCCC1)N1CC(=O)N2CCc3ccccc3C2C1` (stereo unspecified) [Praziquantel]: the IC50 cell viability reads like this: (ICRF193 0 nM) over 45.8 µM; (ICRF193 200 nM) over 45.8 µM.

As for `C[C@]12C=CC(=O)C=C1CC[C@@H]1[C@@H]2[C@@H](O)C[C@@]2(C)[C@H]1CC[C@]2(O)C(=O)COP(=O)(O)O` [Prednisolone Phosphate (sodium salt)], the IC50 cell viability reads like this: (ICRF193 0 nM) over 45.8 µM; (ICRF193 200 nM) over 45.8 µM.

On to `CC(=O)OCC(=O)[C@@]1(O)CC[C@H]2[C@@H]3CCC4=CC(=O)C=C[C@]4(C)[C@H]3[C@@H](O)C[C@@]21C` [Prednisolone acetate], for which the IC50 cell viability (ICRF193 0 nM) was over 45.8 µM and the IC50 cell viability (ICRF193 200 nM) is over 45.8 µM.

Consider `CC(C)=CCC/C(C)=C/CC/C(C)=C/C(=O)OCC(=O)[C@@]1(O)CC[C@H]2[C@@H]3CCC4=CC(=O)C=C[C@]4(C)[C@H]3[C@@H](O)C[C@@]21C` [Prednisolone farnesylate], for which the IC50 cell viability runs as follows: (ICRF193 0 nM) over 45.8 µM; (ICRF193 200 nM) over 45.8 µM.

As for `C[C@]12C=CC(=O)C=C1CC[C@@H]1[C@@H]2[C@@H](O)C[C@@]2(C)[C@H]1CC[C@]2(O)C(=O)CO` [Prednisolone], the IC50 cell viability (ICRF193 0 nM) was over 45.8 µM and the IC50 cell viability (ICRF193 200 nM) is over 45.8 µM.

As for `C[C@]12C=CC(=O)C=C1CC[C@@H]1[C@@H]2C(=O)C[C@@]2(C)[C@H]1CC[C@]2(O)C(=O)CO` [Prednisone], the IC50 cell viability runs as follows: (ICRF193 0 nM) over 45.8 µM; (ICRF193 200 nM) over 45.8 µM.

`C[C@]12C=CC(=O)C=C1CC[C@@H]1[C@@H]2[C@@H](O)C[C@@]2(C)[C@H]1CC[C@]2(O)C(=O)COC(=O)c1cccc(S(=O)(=O)O)c1` [Predocol]: the IC50 cell viability by setting is: (ICRF193 0 nM) over 45.8 µM; (ICRF193 200 nM) over 45.8 µM.

Molecule `C[C@H](O)[C@H]1CC[C@H]2[C@@H]3CC[C@@H]4C[C@H](O)CC[C@]4(C)[C@H]3CC[C@]12C` [Pregnandiol] yielded an IC50 cell viability (ICRF193 0 nM) of over 45.8 µM and an IC50 cell viability (ICRF193 200 nM) of over 45.8 µM.

Take `CC(=O)O[C@H]1CC[C@@]2(C)C(=CC[C@H]3[C@@H]4CC[C@H](C(C)=O)[C@@]4(C)CC[C@@H]32)C1` [Pregnenolone acetate]: the IC50 cell viability is over 45.8 µM (ICRF193 0 nM) and over 45.8 µM (ICRF193 200 nM).

Turning to `CC(=O)[C@H]1CC[C@H]2[C@@H]3CC=C4C[C@@H](O)CC[C@]4(C)[C@H]3CC[C@]12C` [Pregnenolone], the IC50 cell viability by setting is: (ICRF193 0 nM) over 45.8 µM; (ICRF193 200 nM) over 45.8 µM.

`OC(CCN1CCCCC1)(c1ccccc1)c1ccccc1` [Pridinol]: the IC50 cell viability by setting is: (ICRF193 0 nM) over 45.8 µM; (ICRF193 200 nM) over 45.8 µM.

As for `CC[N+]1(CC)CCC(=C(c2ccccc2)c2ccccc2)C1C` (stereo unspecified) [Prifinium bromide], the IC50 cell viability was over 45.8 µM (ICRF193 0 nM) and over 45.8 µM (ICRF193 200 nM).

Regarding `CCCNC(C)C(=O)Nc1ccccc1C` (stereo unspecified) [Prilocaine hydrochloride], the IC50 cell viability runs as follows: (ICRF193 0 nM) over 45.8 µM; (ICRF193 200 nM) over 45.8 µM.

With `CCC1(c2ccccc2)C(=O)NCNC1=O` [Primidone], the IC50 cell viability was over 45.8 µM (ICRF193 0 nM) and over 45.8 µM (ICRF193 200 nM).

Regarding `CCCN(CCC)S(=O)(=O)c1ccc(C(=O)O)cc1` [Probenecid], the IC50 cell viability is over 45.8 µM (ICRF193 0 nM) and over 45.8 µM (ICRF193 200 nM).

In the case of `CC(C)(Sc1cc(C(C)(C)C)c(O)c(C(C)(C)C)c1)Sc1cc(C(C)(C)C)c(O)c(C(C)(C)C)c1` [Probucol], the IC50 cell viability was over 45.8 µM (ICRF193 0 nM) and over 45.8 µM (ICRF193 200 nM).

For `CCN(CC)CCNC(=O)c1ccc(N)cc1` [Procainamide], the IC50 cell viability reads like this: (ICRF193 0 nM) over 45.8 µM; (ICRF193 200 nM) over 45.8 µM.

On to `CNNCc1ccc(C(=O)NC(C)C)cc1` [Procarbazine hydrochloride], for which the IC50 cell viability runs as follows: (ICRF193 0 nM) over 45.8 µM; (ICRF193 200 nM) over 45.8 µM.

As for `CCC(NC(C)C)C(O)c1ccc(O)c2[nH]c(=O)ccc12` (stereo unspecified) [Procaterol], the IC50 cell viability runs as follows: (ICRF193 0 nM) over 45.8 µM; (ICRF193 200 nM) over 45.8 µM.

On to `OC(CCN1CCCC1)(c1ccccc1)C1CCCCC1` (stereo unspecified) [Procyclidine hydrochloride], for which the IC50 cell viability by setting is: (ICRF193 0 nM) over 45.8 µM; (ICRF193 200 nM) over 45.8 µM.

Take `CCCN(CCC)C(=O)C(CCC(=O)O)NC(=O)c1ccccc1` (stereo unspecified) [Proglumide]: the IC50 cell viability was over 45.8 µM (ICRF193 0 nM) and over 45.8 µM (ICRF193 200 nM).

For the origin of these results see the supplement of paper PMC12137928.
